Columns and labels:
Format in all cases: in vivo, human
healthy male volunteers [1] = assay: Area of dynamic mechanical hyperalgesia after intradermal capsaicin (cotton wool stroking); conditions: single oral dose (clobazam 20 mg, clonazepam 1 mg, tolterodine 1 mg), mean (SD)
Protocol: The area of dynamic mechanical hyperalgesia was determined by gently stroking a hand-held cotton wool tip on a 1 cm strip of the skin, at a rate of approximately 1 cm/s. Subjects were asked to report when the sensation changed from a non-painful to a painful sensation. The borders of dynamic hyperalgesia were delineated similarly to the determination of static hyperalgesia.

healthy male volunteers [2] = assay: Pain rating (VAS) after graded von Frey hair stimulation in the capsaicin hyperalgesic area; conditions: VAS 0-10, single oral dose (clobazam 20 mg, clonazepam 1 mg, tolterodine 1 mg), mean (SD)
Protocol: Additionally, mechanical pain sensitivity was assessed using a set of seven weighted pinprick stimuli to obtain a stimulus-response function. The test was applied 1 cm inside the outer border of the pinprick hyperalgesic area, using a set of 7 graded von Frey hair mechanical stimulators with fixed stimulus intensities (custom-made at Aalborg University, Denmark). The flat contact area of the stimulators has a 0.2 mm diameter, and the 7 stimulators exert forces of 8, 16, 32, 64, 128, 256 and 512 mN. The order of stimulation was defined randomly by computer. The stimulators were applied at a rate of 2 s on/2 s off. Subjects were asked to give a pain rating for each stimulus on a 10 cm VAS. Two assessments for each stimulation were made and the mean of these 2 measurements was used for the data analysis.

healthy male volunteers [3] = assay: Conditioned pain modulation (cold pressor test and pressure algometry); conditions: difference in pressure pain detection threshold after vs before cold pressor test, mean (SD)
From the text: This method explores the endogenous modulation of nociceptive input. Under normal conditions, pain after application of a “test” nociceptive stimulus is attenuated by the application of an additional conditioning noxious stimulus to a remote body region, reflecting diffuse endogenous inhibition, [20]. In the present study, pressure pain detection threshold and cold pressure test (see below) were used as test and conditioning stimuli, respectively. An increase in pressure pain detection threshold immediately after cold pressure test was an indication of CPM.
The subjects placed their hand into a container filled with ice water. In order to maximize heterotopic stimulation, the hand contralateral to the side of pressure stimulation was used. The water was regularly mixed to maintain the temperature near to 0°C. The temperature of the water near the hand was monitored by a thermometer with a digital display (±0.1°C). The subjects were asked to keep the hand in the water until they felt an intolerable sensation of pain and were forced to remove the hand from the container, with a maximum time of 2 min.
Pressure pain detection threshold was measured again at the same time as the subject was withdrawing the hand from the water (one single measurement). CPM was measured as the difference in pressure pain detection threshold between measurements after and before the cold pressure test.

healthy male volunteers [4] = assay: Cutaneous repeated (5 stimuli) electrical stimulation, temporal summation threshold; conditions: mean (SD)
From the text: The stimulus burst used for single stimulus was repeated 5 times at 2 Hz, at constant intensity. The current intensity of the 5 stimuli was increased from 1 mA in steps of 0.5 mA until the subjects felt pain during the last 2–3 of the 5 stimuli (indicating temporal summation).
Three assessments were made and the mean of these 3 measurements was used for the data analysis.

healthy male volunteers [5] = assay: Cutaneous repeated (20 stimuli) electrical stimulation, VAS; parameters: AUC of VAS during 20 cutaneous electrical stimuli: unit not given beside the values; conditions: mean (SD); for Maximal VAS during 20 cutaneous electrical stimuli: VAS 0-10
Protocol: (§1) The stimulus burst used for single stimulus was repeated for a train of 20 pulses at 2 Hz, at an intensity corresponding to the temporal summation threshold. During this 10 s stimulation, pain intensity was continuously rated by the subject with an electronic VAS, and the area under the curve (AUC) was computed. Additionally, the maximal VAS during stimulation was recorded.

healthy male volunteers [6] = assay: Intramuscular single electrical stimulation pain threshold (tibialis anterior); conditions: mean (SD)
Protocol: Electrical stimulation was performed through electrodes placed distal to the lateral malleolus. A 25 ms, train-of-five, 1 ms, square-wave impulse (perceived as one stimulus), was delivered by a computer-controlled constant current stimulator (Digitimer DS7A, Neurospec, Letchworth Garden City, UK). The current intensity was increased from 1 mA in steps of 0.5 mA until a pain sensation was evoked.
(§2) A needle was placed in the tibialis anterior muscle, 14 cm distal from the caudal end of the patella and 20 mm in depth. The same single and repeated stimulation patterns and the same procedure described for cutaneous stimulation were used.

healthy male volunteers [7] = assay: Intramuscular repeated (20 stimuli) electrical stimulation, VAS; parameters: AUC of VAS during 20 intramuscular electrical stimuli: unit not given beside the values; conditions: mean (SD); for Maximal VAS during 20 intramuscular electrical stimuli: VAS 0-10
Protocol: as §1, §2

[8] = baseline before medication, per drug session
[9] = single oral dose (clobazam 20 mg, clonazepam 1 mg, tolterodine 1 mg), 120 min after medication
[10] = single oral dose (clobazam 20 mg, clonazepam 1 mg, tolterodine 1 mg), after flumazenil 0.2 mg iv
[11] = single oral dose (clobazam 20 mg, clonazepam 1 mg, tolterodine 1 mg), 30 min after medication
[12] = single oral dose (clobazam 20 mg, clonazepam 1 mg, tolterodine 1 mg), 60 min after medication
[13] = single oral dose (clobazam 20 mg, clonazepam 1 mg, tolterodine 1 mg), 90 min after medication

SMILES: Cc1ccc(O)c([C@H](CCN(C(C)C)C(C)C)c2ccccc2)c1 [Tolterodine]
- Area of dynamic hyperalgesia (healthy male volunteers [1]; 30 min after medication): 20.3 (11.6) cm^2
- Area of dynamic hyperalgesia (healthy male volunteers [1]; 60 min after medication): 23.3 (09.0) cm^2
- Area of dynamic hyperalgesia (healthy male volunteers [1]; 90 min after medication): 23.1 (11.3) cm^2
- Area of dynamic hyperalgesia (healthy male volunteers [1]; 120 min after medication): 23.3 (09.1) cm^2
- Area of dynamic hyperalgesia (healthy male volunteers [1]; after flumazenil 0.2 mg iv): 24.7 (14.6) cm^2
- VAS after von Frey hair 8 mN (healthy male volunteers [2]; 30 min after medication): 1.3 (1.5)
- VAS after von Frey hair 16 mN (healthy male volunteers [2]; 30 min after medication): 1.7 (1.8)
- VAS after von Frey hair 32 mN (healthy male volunteers [2]; 30 min after medication): 2.5 (1.9)
- VAS after von Frey hair 64 mN (healthy male volunteers [2]; 30 min after medication): 3.2 (2.3)
- VAS after von Frey hair 128 mN (healthy male volunteers [2]; 30 min after medication): 3.4 (2.2)
- VAS after von Frey hair 256 mN (healthy male volunteers [2]; 30 min after medication): 4.2 (2.1)
- VAS after von Frey hair 512 mN (healthy male volunteers [2]; 30 min after medication): 4.9 (2.0)
- VAS after von Frey hair 8 mN (healthy male volunteers [2]; 60 min after medication): 1.2 (1.3)
- VAS after von Frey hair 16 mN (healthy male volunteers [2]; 60 min after medication): 1.9 (1.9)
- VAS after von Frey hair 32 mN (healthy male volunteers [2]; 60 min after medication): 2.7 (2.2)
- VAS after von Frey hair 64 mN (healthy male volunteers [2]; 60 min after medication): 2.9 (1.8)
- VAS after von Frey hair 128 mN (healthy male volunteers [2]; 60 min after medication): 3.5 (2.2)
- VAS after von Frey hair 256 mN (healthy male volunteers [2]; 60 min after medication): 4.2 (2.1)
- VAS after von Frey hair 512 mN (healthy male volunteers [2]; 60 min after medication): 5.2 (2.0)
- VAS after von Frey hair 8 mN (healthy male volunteers [2]; 90 min after medication): 1.2 (1.4)
- VAS after von Frey hair 16 mN (healthy male volunteers [2]; 90 min after medication): 1.6 (1.9)
- VAS after von Frey hair 32 mN (healthy male volunteers [2]; 90 min after medication): 2.2 (1.4)
- VAS after von Frey hair 64 mN (healthy male volunteers [2]; 90 min after medication): 2.8 (2.0)
- VAS after von Frey hair 128 mN (healthy male volunteers [2]; 90 min after medication): 3.1 (2.0)
- VAS after von Frey hair 256 mN (healthy male volunteers [2]; 90 min after medication): 4.2 (2.0)
- VAS after von Frey hair 512 mN (healthy male volunteers [2]; 90 min after medication): 4.9 (2.1)
- VAS after von Frey hair 8 mN (healthy male volunteers [2]; 120 min after medication): 1.0 (0.9)
- VAS after von Frey hair 16 mN (healthy male volunteers [2]; 120 min after medication): 1.4 (1.3)
- VAS after von Frey hair 32 mN (healthy male volunteers [2]; 120 min after medication): 1.9 (1.3)
- VAS after von Frey hair 64 mN (healthy male volunteers [2]; 120 min after medication): 2.3 (1.5)
- VAS after von Frey hair 128 mN (healthy male volunteers [2]; 120 min after medication): 2.9 (2.0)
- VAS after von Frey hair 256 mN (healthy male volunteers [2]; 120 min after medication): 4.1 (2.5)
- VAS after von Frey hair 512 mN (healthy male volunteers [2]; 120 min after medication): 4.8 (2.2)
- VAS after von Frey hair 8 mN (healthy male volunteers [2]; after flumazenil 0.2 mg iv): 1.1 (1.2)
- VAS after von Frey hair 16 mN (healthy male volunteers [2]; after flumazenil 0.2 mg iv): 1.1 (0.9)
- VAS after von Frey hair 32 mN (healthy male volunteers [2]; after flumazenil 0.2 mg iv): 2.1 (1.6)
- VAS after von Frey hair 64 mN (healthy male volunteers [2]; after flumazenil 0.2 mg iv): 2.6 (1.7)
- VAS after von Frey hair 128 mN (healthy male volunteers [2]; after flumazenil 0.2 mg iv): 2.6 (1.5)
- VAS after von Frey hair 256 mN (healthy male volunteers [2]; after flumazenil 0.2 mg iv): 4.1(1.7)
- VAS after von Frey hair 512 mN (healthy male volunteers [2]; after flumazenil 0.2 mg iv): 5.0 (2.2)
- Conditioned pain modulation (healthy male volunteers [3]; [8]): 68 (100) kPa
- Conditioned pain modulation (healthy male volunteers [3]; [9]): 72 (114) kPa
- Conditioned pain modulation (healthy male volunteers [3]; [10]): 77 (79) kPa
- Pain threshold after 5 cutaneous electrical stimuli (healthy male volunteers [4]; [8]): 8.8 (2.3) mA
- Pain threshold after 5 cutaneous electrical stimuli (healthy male volunteers [4]; [11]): 9.0 (2.4) mA
- Pain threshold after 5 cutaneous electrical stimuli (healthy male volunteers [4]; [12]): 9.2 (2.2) mA
- Pain threshold after 5 cutaneous electrical stimuli (healthy male volunteers [4]; [13]): 9.5 (2.2) mA
- Pain threshold after 5 cutaneous electrical stimuli (healthy male volunteers [4]; [9]): 9.7 (2.1) mA
- Pain threshold after 5 cutaneous electrical stimuli (healthy male volunteers [4]; [10]): 10.0 (2.3) mA
- Maximal VAS during 20 cutaneous electrical stimuli (healthy male volunteers [5]; [8]): 4.7 (1.5)
- Maximal VAS during 20 cutaneous electrical stimuli (healthy male volunteers [5]; [11]): 5.1 (1.6)
- Maximal VAS during 20 cutaneous electrical stimuli (healthy male volunteers [5]; [12]): 4.8 (1.8)
- Maximal VAS during 20 cutaneous electrical stimuli (healthy male volunteers [5]; [13]): 4.9 (1.8)
- Maximal VAS during 20 cutaneous electrical stimuli (healthy male volunteers [5]; [9]): 4.6 (1.8)
- Maximal VAS during 20 cutaneous electrical stimuli (healthy male volunteers [5]; [10]): 4.7 (1.6)
- AUC of VAS during 20 cutaneous electrical stimuli (healthy male volunteers [5]; [8]): 379 (155)
- AUC of VAS during 20 cutaneous electrical stimuli (healthy male volunteers [5]; [11]): 382 (134)
- AUC of VAS during 20 cutaneous electrical stimuli (healthy male volunteers [5]; [12]): 362 (155)
- AUC of VAS during 20 cutaneous electrical stimuli (healthy male volunteers [5]; [13]): 336 (143)
- AUC of VAS during 20 cutaneous electrical stimuli (healthy male volunteers [5]; [9]): 328 (144)
- AUC of VAS during 20 cutaneous electrical stimuli (healthy male volunteers [5]; [10]): 326 (136)
- Pain threshold after single intramuscular electrical stimulation (healthy male volunteers [6]; [8]): 1.8 (1.2) mA
- Pain threshold after single intramuscular electrical stimulation (healthy male volunteers [6]; [9]): 2.2 (1.2) mA
- Pain threshold after single intramuscular electrical stimulation (healthy male volunteers [6]; [10]): 2.7 (1.7) mA
- Maximal VAS during 20 intramuscular electrical stimuli (healthy male volunteers [7]; [8]): 4.5 (1.6)
- Maximal VAS during 20 intramuscular electrical stimuli (healthy male volunteers [7]; [9]): 3.8 (2.4)
- Maximal VAS during 20 intramuscular electrical stimuli (healthy male volunteers [7]; [10]): 4.1 (2.5)
- AUC of VAS during 20 intramuscular electrical stimuli (healthy male volunteers [7]; [8]): 323 (127)
- AUC of VAS during 20 intramuscular electrical stimuli (healthy male volunteers [7]; [9]): 286 (198)
- AUC of VAS during 20 intramuscular electrical stimuli (healthy male volunteers [7]; [10]): 316 (206)

Reference: article PMC3598812, “Evaluation of Anti-Hyperalgesic and Analgesic Effects of Two Benzodiazepines in Human Experimental Pain: A Randomized Placebo-Controlled Study” (PLoS ONE, 2013)
